Consider two compounds from ChEMBL document CHEMBL5523701, “Structure-based discovery of small molecule inhibitors of FKBP51-Hsp90 protein-protein interaction” (Eur J Med Chem, 2024).

Each structure is given as a SMILES string.

The IC50 is the midpoint of a concentration-inhibition curve.

Experiment [1] deals with T1, DnaJ homolog subfamily C member 7 (Homo sapiens, UniProt Q99615).
T1 sequence (Q99615 whole entry): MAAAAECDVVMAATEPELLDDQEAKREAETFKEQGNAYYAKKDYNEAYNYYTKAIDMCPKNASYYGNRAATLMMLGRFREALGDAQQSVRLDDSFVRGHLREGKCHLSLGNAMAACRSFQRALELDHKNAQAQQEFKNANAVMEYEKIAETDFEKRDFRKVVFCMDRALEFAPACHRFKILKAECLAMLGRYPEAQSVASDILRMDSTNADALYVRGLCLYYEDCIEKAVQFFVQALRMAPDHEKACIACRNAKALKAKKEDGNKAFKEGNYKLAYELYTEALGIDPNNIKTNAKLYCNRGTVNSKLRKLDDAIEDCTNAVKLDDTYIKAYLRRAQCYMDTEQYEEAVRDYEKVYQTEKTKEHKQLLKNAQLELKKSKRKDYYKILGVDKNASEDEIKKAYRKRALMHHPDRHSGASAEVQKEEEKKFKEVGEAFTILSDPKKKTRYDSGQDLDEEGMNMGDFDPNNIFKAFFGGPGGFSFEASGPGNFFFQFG
The experiment in a line: Inhibition of GST-tagged human DNAJC7 expressed in Escherichia coli BL21 (DE3) using NH2-EDASRMEEVD-COOH peptide as substrate preincubated for 15 mins followed by substrate addition measured after 15 mins by Alpha Screen assay.

Experiment [2] deals with T2, Serine/threonine-protein phosphatase 5 (Homo sapiens, UniProt P53041).
T2 sequence (P53041 whole entry): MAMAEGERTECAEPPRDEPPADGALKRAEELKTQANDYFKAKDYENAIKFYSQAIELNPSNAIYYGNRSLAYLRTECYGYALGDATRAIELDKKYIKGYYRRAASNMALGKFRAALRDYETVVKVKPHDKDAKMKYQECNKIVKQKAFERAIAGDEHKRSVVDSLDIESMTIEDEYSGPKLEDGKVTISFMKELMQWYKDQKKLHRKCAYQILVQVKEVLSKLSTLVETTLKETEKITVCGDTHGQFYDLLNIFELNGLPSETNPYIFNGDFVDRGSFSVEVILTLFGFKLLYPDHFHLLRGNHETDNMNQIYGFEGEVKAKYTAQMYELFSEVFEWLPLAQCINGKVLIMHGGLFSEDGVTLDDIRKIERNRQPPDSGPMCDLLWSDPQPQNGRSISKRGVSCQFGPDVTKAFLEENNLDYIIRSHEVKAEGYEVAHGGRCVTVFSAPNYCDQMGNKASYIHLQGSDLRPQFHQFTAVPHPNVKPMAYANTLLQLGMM
The experiment in a line: Inhibition of GST-tagged human PP5 expressed in Escherichia coli BL21 (DE3) using NH2-EDASRMEEVD-COOH peptide as substrate preincubated for 15 mins followed by substrate addition measured after 15 mins by Alpha Screen assay. In general terms: Bead proximity is the source of the signal in Alpha formats.

The target of experiment [3] is Stress-induced-phosphoprotein 1 (Homo sapiens, UniProt P31948). The experiment can be described thus: Inhibition of GST-tagged human HOP expressed in Escherichia coli BL21 (DE3) using NH2-EDASRMEEVD-COOH peptide as substrate preincubated for 15 mins followed by substrate addition measured after 15 mins by Alpha Screen assay.
Sequence of Stress-induced-phosphoprotein 1 (P31948 whole entry): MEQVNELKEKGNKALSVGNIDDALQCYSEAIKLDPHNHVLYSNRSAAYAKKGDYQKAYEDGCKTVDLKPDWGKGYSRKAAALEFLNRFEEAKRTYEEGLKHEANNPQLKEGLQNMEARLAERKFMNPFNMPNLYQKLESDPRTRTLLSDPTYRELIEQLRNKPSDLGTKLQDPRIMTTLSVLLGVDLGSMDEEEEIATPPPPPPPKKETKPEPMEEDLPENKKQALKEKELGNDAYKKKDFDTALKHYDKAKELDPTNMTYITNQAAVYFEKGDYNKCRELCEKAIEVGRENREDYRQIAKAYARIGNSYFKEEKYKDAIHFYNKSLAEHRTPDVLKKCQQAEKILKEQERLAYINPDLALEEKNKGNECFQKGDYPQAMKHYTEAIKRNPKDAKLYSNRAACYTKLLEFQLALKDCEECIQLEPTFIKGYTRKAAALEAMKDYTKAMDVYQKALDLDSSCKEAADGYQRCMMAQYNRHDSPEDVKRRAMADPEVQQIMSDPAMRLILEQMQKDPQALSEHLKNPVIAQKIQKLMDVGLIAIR
Experiment [4] concerns the target Peptidyl-prolyl cis-trans isomerase FKBP8 (Homo sapiens, UniProt Q14318). The experiment can be described thus: Inhibition of GST-tagged human FKBP38 expressed in Escherichia coli BL21 (DE3) using NH2-EDASRMEEVD-COOH peptide as substrate preincubated for 15 mins followed by substrate addition measured after 15 mins by Alpha Screen assay.
The target in experiment [5] is T3, AH receptor-interacting protein (Homo sapiens, UniProt O00170).
T3 sequence (O00170 whole entry): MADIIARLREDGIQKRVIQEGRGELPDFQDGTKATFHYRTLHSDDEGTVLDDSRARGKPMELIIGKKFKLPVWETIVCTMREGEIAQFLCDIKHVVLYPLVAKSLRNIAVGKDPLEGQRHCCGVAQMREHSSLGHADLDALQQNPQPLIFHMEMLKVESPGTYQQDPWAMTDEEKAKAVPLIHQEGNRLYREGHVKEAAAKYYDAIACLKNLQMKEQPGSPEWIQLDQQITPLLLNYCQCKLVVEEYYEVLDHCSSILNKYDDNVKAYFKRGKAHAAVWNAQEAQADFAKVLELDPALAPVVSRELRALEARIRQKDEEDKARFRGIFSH
The experiment can be described thus: Inhibition of GST-tagged human AIP expressed in Escherichia coli BL21 (DE3) using NH2-EDASRMEEVD-COOH peptide as substrate preincubated for 15 mins followed by substrate addition measured after 15 mins by Alpha Screen assay.

The target in experiment [6] is T4, Mitochondrial import receptor subunit TOM70 (Homo sapiens, UniProt O94826).
T4 sequence (O94826 whole entry): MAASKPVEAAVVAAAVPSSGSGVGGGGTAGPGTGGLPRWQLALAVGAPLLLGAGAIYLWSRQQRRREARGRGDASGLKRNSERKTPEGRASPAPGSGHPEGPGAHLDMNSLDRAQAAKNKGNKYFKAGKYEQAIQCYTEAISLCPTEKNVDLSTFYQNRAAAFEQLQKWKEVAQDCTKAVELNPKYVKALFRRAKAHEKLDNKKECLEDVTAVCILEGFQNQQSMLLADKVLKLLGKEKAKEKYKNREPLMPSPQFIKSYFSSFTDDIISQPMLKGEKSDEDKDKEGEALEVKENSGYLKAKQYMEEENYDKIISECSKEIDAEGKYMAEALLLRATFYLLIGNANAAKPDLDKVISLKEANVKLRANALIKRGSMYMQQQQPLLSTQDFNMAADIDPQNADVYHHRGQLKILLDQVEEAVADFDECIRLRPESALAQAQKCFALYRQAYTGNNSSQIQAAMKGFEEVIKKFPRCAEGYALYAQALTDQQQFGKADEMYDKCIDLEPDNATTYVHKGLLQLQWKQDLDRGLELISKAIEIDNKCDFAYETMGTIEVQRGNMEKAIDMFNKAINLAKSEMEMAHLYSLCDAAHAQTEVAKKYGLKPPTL
The experiment in a line: Inhibition of GST-tagged human TOM70 expressed in Escherichia coli BL21 (DE3) using NH2-EDASRMEEVD-COOH peptide as substrate preincubated for 15 mins followed by substrate addition measured after 15 mins by Alpha Screen assay.

Experiment [7] has as its target Small glutamine-rich tetratricopeptide repeat-containing protein alpha (Homo sapiens, UniProt O43765). The experiment in a line: Inhibition of GST-tagged human SGTA expressed in Escherichia coli BL21 (DE3) using NH2-EDASRMEEVD-COOH peptide as substrate preincubated for 15 mins followed by substrate addition measured after 15 mins by Alpha Screen assay.

Sequence of Peptidyl-prolyl cis-trans isomerase FKBP8 (Q14318 whole entry): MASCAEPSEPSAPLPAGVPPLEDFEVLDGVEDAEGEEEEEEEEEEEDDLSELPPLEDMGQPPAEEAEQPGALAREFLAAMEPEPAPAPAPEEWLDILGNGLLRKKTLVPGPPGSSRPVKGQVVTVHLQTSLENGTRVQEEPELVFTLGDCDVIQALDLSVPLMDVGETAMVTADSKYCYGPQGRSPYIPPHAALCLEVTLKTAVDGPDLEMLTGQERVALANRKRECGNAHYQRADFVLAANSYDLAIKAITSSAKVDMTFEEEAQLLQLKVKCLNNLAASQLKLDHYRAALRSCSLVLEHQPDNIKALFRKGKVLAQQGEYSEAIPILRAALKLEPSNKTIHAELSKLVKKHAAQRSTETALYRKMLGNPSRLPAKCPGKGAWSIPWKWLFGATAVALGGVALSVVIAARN
Sequence of Small glutamine-rich tetratricopeptide repeat-containing protein alpha (O43765 whole entry): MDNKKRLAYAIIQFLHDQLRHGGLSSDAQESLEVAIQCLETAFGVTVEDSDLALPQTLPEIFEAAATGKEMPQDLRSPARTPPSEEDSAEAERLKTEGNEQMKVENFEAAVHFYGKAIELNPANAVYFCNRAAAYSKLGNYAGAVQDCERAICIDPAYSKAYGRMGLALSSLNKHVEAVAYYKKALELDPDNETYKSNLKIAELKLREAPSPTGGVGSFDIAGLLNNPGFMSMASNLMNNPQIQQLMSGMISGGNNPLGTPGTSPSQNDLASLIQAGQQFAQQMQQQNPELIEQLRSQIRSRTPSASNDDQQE

Take `COC(=O)c1c(NC(=O)CSc2nnc(-c3ccco3)c(-c3ccco3)n2)sc(C)c1C`: the IC50 amounted to 4 µM in experiment [1]; 2.5 µM in experiment [2]; 5 µM in experiment [3]; 2.5 µM in experiment [4]; 6 µM in experiment [5]; 5 µM in experiment [6]. The compound further gave a half-maximal inhibitory concentration (IC50) in experiment [7] of 6 µM.
For the compound `Cc1sc(NC(=O)CCCC(=O)Nc2sc(C)c(C)c2C(N)=O)c(C(N)=O)c1C`, the concentration for half-maximal inhibition (IC50) in experiment [1] worked out at 2 µM; in experiment [2], 2 µM; in experiment [3], 10 µM; in experiment [4], 4 µM; in experiment [5], 7 µM; in experiment [6], 1.2 µM. Further, the IC50 in experiment [7] was 2 µM.
